Format in all cases: functional, cell-based
Experiment [1] relates to HeLa. The experiment in a line: Cytotoxicity against human HeLa cells assessed as reduction in cell viability incubated for 48 hrs by MTT assay.
The subject of experiment [2] is MCF7. The experiment in a line: Cytotoxicity against human MCF7 cells assessed as reduction in cell viability incubated for 48 hrs by MTT assay. As to conditions: MCF7, 48 h.
Experiment [3] deals with A549. The experiment in a line: Cytotoxicity against human A549 cells assessed as reduction in cell viability after 48 hrs by MTT assay. As to conditions: A549, 48 h.
In a further experiment the test system is P388. The experiment in a line: Cytotoxicity against mouse P388 cells assessed as reduction in cell viability after 48 hrs by MTT assay. As to conditions: P388, 48 h.
For another experiment, the system named is L1210. The experiment in a line: Cytotoxicity against mouse L1210 cells assessed as reduction in cell viability after 48 hrs by MTT assay. To be noted: L1210, 48 h.
The subject of the next experiment is HT-29. The experiment in a line: Cytotoxicity against human HT-29 cells assessed as reduction in cell viability after 48 hrs by MTT assay. To be noted: HT-29, 48 h.
The test system of experiment [4] is A549. The experiment in a line: Cytotoxicity against human A549 cells by SRB assay.
For the next experiment, the system named is SK-MEL-2. The experiment in a line: Cytotoxicity against human SK-MEL-2 cells by SRB assay.
The test system of a further experiment is SK-OV-3. The experiment in a line: Cytotoxicity against human SKOV3 cells by SRB assay.
A further experiment relates to XF498. The experiment in a line: Cytotoxicity against human XF498 cells by SRB assay.
For the next experiment, the system named is HCT-15. The experiment in a line: Cytotoxicity against human HCT15 cells by SRB assay.
Experiment [5] deals with HeLa. The experiment in a line: Cytotoxicity against human HeLa cells after 48 hrs by MTT assay.
A further experiment concerns U-937. The experiment in a line: Cytotoxicity against human U937 cells after 48 hrs by MTT assay. As to conditions: U-937, 48 h.
The subject of experiment [6] is A549. The experiment in a line: Cytotoxicity against human A549 cells after 48 hrs by MTT assay. To be noted: A549, 48 h.
For a further experiment, the system named is Bel-7402. The experiment in a line: Cytotoxicity against human Bel7402 cells by MTT assay.
In experiment [7] the test system is A549. The experiment in a line: Cytotoxicity against human A549 cells by MTT assay.
The next experiment has as its system A2780. The experiment in a line: Cytotoxicity against human A2780 cells after 72 hrs by MTT assay. As to conditions: A2780, 72 h.
Another experiment deals with A-431. The experiment in a line: Cytotoxicity against human A431 cells after 72 hrs by MTT assay. To be noted: A-431, 72 h.
Experiment [8] concerns HeLa. The experiment in a line: Cytotoxicity against human HeLa cells after 72 hrs by MTT assay.
The test system of experiment [9] is MCF7. The experiment in a line: Cytotoxicity against human MCF7 cells after 72 hrs by MTT assay. To be noted: MCF7, 72 h.
The test system of another experiment is HepG2. The experiment in a line: Cytotoxicity against human HepG2 cells after 72 hrs by MTT assay. As to conditions: HepG2, 72 h.
The subject of the next experiment is SH-SY5Y. The experiment in a line: Cytotoxicity against human SH-SY5Y cells after 72 hrs by MTT assay.
Experiment [10] is described as follows: Cytotoxicity against mouse S17 cells after 72 hrs by MTT assay. As to conditions: S17, 72 h.
Another experiment concerns HL-60. The experiment in a line: Antiproliferative activity against human HL60 cells assessed as reduction in cell viability after 3 days by XTT assay. As to conditions: HL-60, 72 h.
Experiment [11] is described as follows: Cytotoxicity against human YD-10B cells assessed as reduction in cell viability after 48 hr by MTT asssay.

Converted amounts (≈) assume the structure as drawn.

With `COc1cc(-c2oc3cc(O)cc(O)c3c(=O)c2OC)cc(O)c1OC`, the IC50 lay within 8.1 to 63.2 µM in the experiment on HeLa [1] and 10.3 to 91.9 µM in the experiment on MCF7 [2].

As for `COc1ccc(-c2cc(=O)c3c(O)c(OC)c(OC)cc3o2)cc1OC`, the IC50 in the experiment with HeLa [1] lay within 8.1 to 63.2 µM; in the experiment with MCF7 [2] it was 10.3 to 91.9 µM.

For the compound `C[C@H]1[C@@H](O[C@H](C#N)c2ccc(Br)cc2)O[C@@H]2O[C@@]3(C)CC[C@H]4[C@H](C)CC[C@@H]1[C@@]24OO3`, the IC50 in the experiment with A549 [3], in the experiment on P388, in the experiment on L1210 and in the experiment with HT-29 was 0.01 to 0.49 µM in each case.

`C[C@H]1[C@@H](O[C@@H](C#N)c2ccc(Br)cc2)O[C@@H]2O[C@@]3(C)CC[C@H]4[C@H](C)CC[C@@H]1[C@@]24OO3`: the IC50 in the experiment with A549 [3], in the experiment with P388, in the experiment with L1210 and in the experiment on HT-29 was 0.01 to 0.49 µM in each case.

Consider `CC(C)=CCC[C@H](C)[C@H]1C[C@@H]2OO[C@H]1C=C2C`, for which the IC50 in the experiment with A549 [4], in the experiment on SK-MEL-2, in the experiment on SK-OV-3, in the experiment on XF498 and in the experiment on HCT-15 was 0.1 to 0.87 mg/L (≈ 0.423 to 3.68 µM) each time.

In the case of `C=C1C(=O)O[C@H]2[C@H]1[C@@H](OC(=O)C(C)C)CC(C)=C1C[C@@H]3O[C@]3(C)[C@@H]12`, the IC50 with HeLa [5], in the experiment on U-937 and in the experiment on A549 [6] was 16 to 43.5 mg/L (≈ 48.1 to 131 µM) throughout.

For `C=C1C(=O)O[C@@H]2/C=C(\C)[C@@H](OC(=O)[C@@H](C)CC)C/C=C(\C)CC[C@@H]12`, the IC50 in the experiment on HeLa [5], with U-937 and in the experiment with A549 [6] was 16 to 43.5 mg/L (≈ 48.1 to 131 µM) in each case.

As for `C=C1C(=O)O[C@H]2[C@H]1CC[C@@](C)(O)[C@]13O[C@H]1[C@H](Cl)[C@@](C)(O)[C@H]23`, the IC50 was 3.3 to 6 µM in the experiment with Bel-7402; 3.3 to 6 µM in the experiment with A549 [7]; 33 to 75 mg/L (≈ 105 to 238 µM) in the experiment on A2780; 33 to 75 mg/L (≈ 105 to 238 µM) in the experiment on A-431; 33 to 75 mg/L (≈ 105 to 238 µM) in the experiment with HeLa [8]; 33 to 75 mg/L (≈ 105 to 238 µM) with MCF7 [9].

Consider `C=C1C(=O)O[C@H]2[C@H]1[C@@H](OC(=O)/C(C)=C\C)CC(C)=C1C[C@@H]3O[C@]3(C)[C@@H]12`, for which the IC50 in the experiment with HeLa [5], in the experiment with U-937 and in the experiment with A549 [6] was 16 to 43.5 mg/L (≈ 46.5 to 126 µM) throughout.

On to `CC1=CCC2[C@@H]1[C@H]1OC(=O)[C@@H](C)[C@@H]1C[C@]1(C)O[C@H]21` (stereo not given in full), for which the IC50 (in the experiment with HepG2; in the experiment on SH-SY5Y; in experiment [10]) was 229 to 233 µM each time.

In the case of `CC(C)=CCC[C@H](C)[C@H]1C[C@H]2OO[C@@H]1C=C2C`, the IC50 with A549 [4], in the experiment on SK-MEL-2, in the experiment with SK-OV-3, in the experiment with XF498 and in the experiment with HCT-15 was 0.2 to 5.43 mg/L (≈ 0.846 to 23 µM) throughout.

With `CC#CC#CCc1ccccc1`, the IC50 in the experiment on HL-60 lay within 1.1 to 40.7 mg/L (≈ 7.13 to 264 µM).

Regarding `C[C@H]1[C@@H](CCNC(=O)CC[C@H](NC(=O)CC[C@H]2O[C@@H]3O[C@@]4(C)CC[C@H]5[C@H](C)CC[C@@H]([C@H]2C)[C@@]35OO4)C(=O)NCC[C@H]2O[C@@H]3O[C@@]4(C)CC[C@H]5[C@H](C)CC[C@@H]([C@H]2C)[C@@]35OO4)O[C@@H]2O[C@@]3(C)CC[C@H]4[C@H](C)CC[C@@H]1[C@@]24OO3`, in experiment [11], the IC50 stood at 6 µM.

`COc1cc2ccc(=O)oc2c(OC)c1O`: the concentration for half-maximal inhibition (IC50) in the experiment with A549 [4], in the experiment with SK-MEL-2, in the experiment with SK-OV-3, with XF498 and with HCT-15 was 0.4 to 26.8 mg/L (≈ 1.8 to 121 µM) in each case.

Turning to `C=C1C(=O)O[C@H](C2=C(C)[C@@H](OC)CC2=O)[C@H]1CCC(C)=O`, the IC50 in the experiment on A2780, in the experiment with A-431, in the experiment with HeLa [8] and in the experiment with MCF7 [9] was 33 to 75 mg/L (≈ 113 to 257 µM) in each case.

`C=C1C(=O)O[C@H]2[C@H]1[C@@H](OC(C)=O)CC(=C)[C@]1(O)C[C@H](Cl)[C@@](C)(O)[C@H]21`: the IC50 in the experiment with Bel-7402 and in the experiment with A549 [7] was 3.3 to 6 µM throughout.

In the case of `C=C1C(=O)O[C@H]2[C@H]1[C@@H](OC(C)=O)C[C@@](C)(O)[C@@]13O[C@@H]1[C@@H](Cl)[C@](C)(O)[C@H]23`, the IC50 in the experiment with Bel-7402 and in the experiment with A549 [7] was 3.3 to 6 µM each time.

For the origin of these results see ChEMBL document CHEMBL4342436, “Artemisia: a promising plant for the treatment of cancer” (Bioorg Med Chem, 2020).
